Source: patent US20190351069A1, “Coating of Nanoparticle Surfaces with Cyclopeptides for Improving Delivery of Agents Via the Oral Route” (Ruprecht-Karls-Universität Heidelberg, priority 2016, published 2019)
Where a SMILES comes first, the peptide text is derived from it.

Experiment: Stability of cell-penetrating peptides in simulated gastric and intestinal fluid (HPLC/MS)
Format: in vitro ADME
Experimental: Both CPPs (1 mg/mL in water) were diluted 1:1 (v/v) with either simulated gastric fluid or simulated intestinal fluid and incubated at 37° C. under constant shaking as described in the art. After 0, 15, 30 and 60 min, the samples were analyzed by HPLC/MS in order to detect the recovery of intact CPP and were compared in relation with the initial solution. • Cytotoxicity Assays • Cell Cultivation

stability in intestinal fluid (over one hour): only a moderate loss
stability in simulated gastric fluid (over one hour): high stability
remaining at 1 h, 0.5 mg/mL (simulated intestinal fluid, after one hour, 37° C., read-out: intact CPP): 47.3%
SMILES: N=C(N)NCCC[C@@H]1NC(=O)[C@H](CS)NC(=O)[C@H](CCCNC(=N)N)NC(=O)[C@H](CCCNC(=N)N)NC(=O)[C@H](CCCNC(=N)N)NC(=O)[C@H](CCCNC(=N)N)NC(=O)[C@H](CCCNC(=N)N)NC(=O)[C@H](CCCNC(=N)N)NC(=O)[C@H](CCCNC(=N)N)NC(=O)[C@H](CCCNC(=N)N)NC1=O [cyclic CPP] (cyclo(RRRRRRRRRC); ring closure inferred)
